Source: ChEMBL document CHEMBL4420076, “Amylin and calcitonin receptor agonist” (2017)
Numbered stars: 1 amine (or outer) side, 2 acyl side, 3 side chain; on linkers, the order of the positions; unused ones are H or OH. Peptide text beside a SMILES is read from it. * marks the point of attachment. C18 diacid = O=C(O)CCCCCCCCCCCCCCCCC(=O)*; γGlu = O=C(O)[C@H](CCC(=O)[*:2])N[*:1]; C14 diacid = O=C(O)CCCCCCCCCCCCC(=O)*; AEEA = NCCOCCOCC(=O)O

Key:
[1] = system: Rattus norvegicus; test: Reduction in food intake in Sprague-Dawley rat at 3 nmol/kg measured 24 to 48 hrs post dose relative to control; type: functional; set-up: scale not given: the % may be the effect or the level left
[2] = Solubility in 100 mM bistrispropane buffer at pH 7.0 incubated for 18 hrs by UPLC analysis; type: physicochemical
[3] = Solubility in 100 mM bistrispropane buffer at pH 7.5 incubated for 18 hrs by UPLC analysis; type: physicochemical
[4] = Solubility in 100 mM glycylglycine buffer at pH 5.0 incubated for 18 hrs by UPLC analysis; type: physicochemical
[5] = biological target: T1, Amylin receptor AMY3; CALCR/RAMP3 (Homo sapiens, UniProt O60896+P30988); test: Agonist activity at human amylin receptor expressed in BHK570 cells co-expressing RAMP3 assessed as increase in intracellular cAMP concentration incubated for 3 hrs in absence of albumin by CRE luciferase reporter gene assay; type: functional, cell-based
T1 sequence (P30988 whole entry): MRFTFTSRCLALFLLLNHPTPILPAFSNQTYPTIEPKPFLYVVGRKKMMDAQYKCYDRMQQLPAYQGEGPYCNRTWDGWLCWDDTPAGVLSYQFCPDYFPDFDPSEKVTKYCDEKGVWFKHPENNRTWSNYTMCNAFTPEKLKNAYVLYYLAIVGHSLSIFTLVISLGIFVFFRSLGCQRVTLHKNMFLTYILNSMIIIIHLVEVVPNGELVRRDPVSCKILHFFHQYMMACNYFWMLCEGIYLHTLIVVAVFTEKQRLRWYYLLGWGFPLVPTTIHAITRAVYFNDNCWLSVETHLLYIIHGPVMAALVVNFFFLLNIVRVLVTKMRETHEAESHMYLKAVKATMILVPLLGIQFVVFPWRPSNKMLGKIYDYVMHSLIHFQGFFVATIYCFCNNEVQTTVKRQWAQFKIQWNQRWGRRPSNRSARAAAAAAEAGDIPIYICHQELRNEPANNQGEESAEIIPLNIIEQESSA
T1 sequence (O60896 whole entry): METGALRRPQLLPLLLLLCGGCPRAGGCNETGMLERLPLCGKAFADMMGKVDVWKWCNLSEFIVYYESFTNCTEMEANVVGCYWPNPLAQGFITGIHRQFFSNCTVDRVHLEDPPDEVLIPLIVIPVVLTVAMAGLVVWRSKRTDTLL

[6] = Solubility in 100 mM glycylglycine buffer at pH 3.0 incubated for 18 hrs by UPLC analysis; type: physicochemical
[7] = system: Rattus norvegicus; test: Reduction in food intake in Sprague-Dawley rat at 3 nmol/kg measured 0 to 24 hrs post dose relative to control; type: functional; set-up: scale not given: the % may be the effect or the level left
[8] = biological target: T1, Amylin receptor AMY3; CALCR/RAMP3; test: Displacement of [125I]-labeled rat amylin from human amylin receptor expressed in BHK tkts13 whole cells co-expressing RAMP3 incubated for 60 mins by scintillation proximity assay; type: cell-based
[9] = Solubility in 100 mM bistrispropane buffer at pH 8.0 incubated for 18 hrs by UPLC analysis; type: physicochemical
[10] = Solubility in 100 mM bistrispropane buffer at pH 6.5 incubated for 18 hrs by UPLC analysis; type: physicochemical
[11] = Solubility in 100 mM bistrispropane buffer at pH 6.0 incubated for 18 hrs by UPLC analysis; type: physicochemical
[12] = Solubility in 100 mM glycylglycine buffer at pH 4.0 incubated for 18 hrs by UPLC analysis; type: physicochemical
[13] = biological target: T2, Calcitonin receptor (Homo sapiens, UniProt P30988); test: Agonist activity at human calcitonin receptor expressed in BHK570 cells assessed as increase in intracellular cAMP concentration incubated for 3 hrs in absence of albumin by CRE luciferase reporter gene assay; type: functional, cell-based
T2 sequence (P30988 whole entry): T1 sequence (P30988 whole entry)

| Structure (SMILES) | Activity [1] | solubility at 18 h [2] | solubility at 18 h [3] | solubility at 18 h [4] | EC50 [5] | solubility at 18 h [6] | Activity [7] | IC50 [8] | solubility at 18 h [9] | solubility at 18 h [10] | solubility at 18 h [11] | solubility at 18 h [12] | EC50 [13] |
| --- | --- | --- | --- | --- | --- | --- | --- | --- | --- | --- | --- | --- | --- |
| CC(C)C[C@H](NC(=O)[C@H](C)NC(=O)[C@H](C)NC(=O)[C@@H](NC(=O)[C@H](CO)NC(=O)[C@H](CC(C)C)NC(=O)[C@H](CCC(=O)O)NC(=O)[C@H](CO)NC(=O)[C@H](C)NC(=O)[C@H](CCC(=O)O)NC(=O)COCCOCCNC(=O)COCCOCCNC(=O)COCCOCCNC(=O)COCCOCCNC(=O)CC[C@H](NC(=O)CC[C@H](NC(=O)CCCCCCCCCCCCC(=O)O)C(=O)O)C(=O)O)[C@@H](C)O)C(=O)NCC(=O)N[C@@H](CCCNC(=N)N)C(=O)N[C@@H](CC(C)C)C(=O)N[C@@H](CO)C(=O)N[C@@H](C)C(=O)N[C@@H](CCC(=O)O)C(=O)N[C@@H](CC(C)C)C(=O)N[C@@H](Cc1cnc[nH]1)C(=O)N[C@@H](CCC(=O)O)C(=O)N[C@@H](CC(C)C)C(=O)N[C@@H](C)C(=O)N[C@H](C(=O)N[C@@H](CC(C)C)C(=O)N1CCC[C@H]1C(=O)N[C@@H](CCCNC(=N)N)C(=O)N[C@H](C(=O)N[C@@H](CCC(=O)O)C(=O)N[C@H](C(=O)NCC(=O)N1CCC[C@H]1C(=O)N[C@@H](CCC(=O)O)C(=O)N[C@@H](CO)C(=O)N1CCC[C@H]1C(N)=O)[C@@H](C)O)[C@@H](C)O)[C@@H](C)O ({C14 diacid-γGlu-γGlu-AEEA-AEEA-AEEA-AEEA}-EASELSTAALGRLSAELHELATLPRTETGPESP-NH2) | -3% | ≥ 200 µM | ≥ 200 µM | ≥ 200 µM | 0.027 nM | ≥ 200 µM | 3% | 8.38 nM | ≥ 200 µM | ≥ 200 µM | ≥ 200 µM | ≥ 200 µM | 0.007 nM |
| CC(C)C[C@H](NC(=O)[C@H](C)NC(=O)[C@H](C)NC(=O)[C@@H](NC(=O)[C@H](CO)NC(=O)[C@H](CC(C)C)NC(=O)[C@H](CCC(=O)O)NC(=O)[C@H](CO)NC(=O)[C@H](C)NC(=O)[C@H](CCC(=O)O)NC(=O)CCCCCCCCCCCCC(=O)O)[C@@H](C)O)C(=O)NCC(=O)N[C@@H](CCCNC(=N)N)C(=O)N[C@@H](CC(C)C)C(=O)N[C@@H](CO)C(=O)N[C@@H](C)C(=O)N[C@@H](CCC(=O)O)C(=O)N[C@@H](CC(C)C)C(=O)N[C@@H](Cc1cnc[nH]1)C(=O)N[C@@H](CCC(=O)O)C(=O)N[C@@H](CC(C)C)C(=O)N[C@@H](C)C(=O)N[C@H](C(=O)N[C@@H](CC(C)C)C(=O)N1CCC[C@H]1C(=O)N[C@@H](CCCNC(=N)N)C(=O)N[C@H](C(=O)N[C@@H](CCC(=O)O)C(=O)N[C@H](C(=O)NCC(=O)N1CCC[C@H]1C(=O)N[C@@H](CCC(=O)O)C(=O)N[C@@H](CO)C(=O)N1CCC[C@H]1C(N)=O)[C@@H](C)O)[C@@H](C)O)[C@@H](C)O ({C14 diacid}-EASELSTAALGRLSAELHELATLPRTETGPESP-NH2) | -4% | ≥ 200 µM | ≥ 200 µM | ≥ 200 µM | 0.006 nM | ≥ 200 µM | 13.5% | 1.19 nM | ≥ 200 µM | ≥ 200 µM | ≥ 200 µM | ≥ 200 µM | 0.002 nM |
| CC(C)C[C@H](NC(=O)[C@H](C)NC(=O)[C@H](C)NC(=O)[C@@H](NC(=O)[C@H](CO)NC(=O)[C@H](CC(C)C)NC(=O)[C@H](CCC(=O)O)NC(=O)[C@H](CO)NC(=O)[C@H](C)NC(=O)[C@H](CCC(=O)O)NC(=O)CCCCCCCCCCCCCCCCC(=O)O)[C@@H](C)O)C(=O)NCC(=O)N[C@@H](CCCNC(=N)N)C(=O)N[C@@H](CC(C)C)C(=O)N[C@@H](CO)C(=O)N[C@@H](C)C(=O)N[C@@H](CCC(=O)O)C(=O)N[C@@H](CC(C)C)C(=O)N[C@@H](C)C(=O)N[C@@H](CCC(=O)O)C(=O)N[C@@H](CC(C)C)C(=O)N[C@@H](C)C(=O)N[C@H](C(=O)N[C@@H](CC(C)C)C(=O)N1CCC[C@H]1C(=O)N[C@@H](CCCNC(=N)N)C(=O)N[C@H](C(=O)N[C@@H](CCC(=O)O)C(=O)N[C@H](C(=O)NCC(=O)N1CCC[C@H]1C(=O)N[C@@H](CCC(=O)O)C(=O)N[C@@H](CO)C(=O)N1CCC[C@H]1C(N)=O)[C@@H](C)O)[C@@H](C)O)[C@@H](C)O ({C18 diacid}-EASELSTAALGRLSAELAELATLPRTETGPESP-NH2) | 18% | ≥ 200 µM | ≥ 200 µM | ≥ 200 µM | 0.004 nM | ≥ 200 µM | 70% | 0.329 nM | ≥ 200 µM | ≥ 200 µM | ≥ 200 µM | ≥ 200 µM | 0.003 nM |
| CC(C)C[C@H](NC(=O)[C@H](CCC(=O)O)NC(=O)[C@H](Cc1cnc[nH]1)NC(=O)[C@H](CC(C)C)NC(=O)[C@H](CCC(=O)O)NC(=O)[C@H](C)NC(=O)[C@H](CO)NC(=O)[C@H](CC(C)C)NC(=O)[C@H](CCCNC(=N)N)NC(=O)CNC(=O)[C@H](CC(C)C)NC(=O)[C@@H](NC(=O)[C@H](C)NC(=O)[C@@H](NC(=O)[C@H](CO)NC(=O)[C@H](CC(C)C)NC(=O)[C@H](CCC(=O)O)NC(=O)[C@H](CO)NC(=O)[C@H](C)NC(=O)[C@H](CCC(=O)O)NC(=O)CCCCCCCCCCCCCCCCC(=O)O)[C@@H](C)O)C(C)C)C(=O)N[C@@H](C)C(=O)N[C@H](C(=O)N[C@@H](CC(C)C)C(=O)N1CCC[C@H]1C(=O)N1CCC[C@H]1C(=O)N[C@H](C(=O)N[C@@H](CCC(=O)O)C(=O)N[C@H](C(=O)NCC(=O)N1CCC[C@H]1C(=O)N[C@@H](CCC(=O)O)C(=O)N[C@@H](CO)C(=O)N1CCC[C@H]1C(N)=O)[C@@H](C)O)[C@@H](C)O)[C@@H](C)O ({C18 diacid}-EASELSTAVLGRLSAELHELATLPPTETGPESP-NH2) | 12% | ≥ 200 µM | ≥ 200 µM | ≥ 200 µM | 0.014 nM | ≥ 200 µM | 62% | 0.383 nM | ≥ 200 µM | ≥ 200 µM | ≥ 200 µM | ≥ 200 µM | 0.006 nM |
| CC(C)C[C@H](NC(=O)[C@H](CCC(=O)O)NC(=O)[C@H](Cc1cnc[nH]1)NC(=O)[C@H](CC(C)C)NC(=O)[C@H](CCC(=O)O)NC(=O)[C@H](C)NC(=O)[C@H](CO)NC(=O)[C@H](CC(C)C)NC(=O)[C@H](CCCNC(=N)N)NC(=O)CNC(=O)[C@H](CC(C)C)NC(=O)[C@@H](NC(=O)[C@H](C)NC(=O)[C@@H](NC(=O)[C@H](CO)NC(=O)[C@H](CC(C)C)NC(=O)[C@H](CCC(=O)O)NC(=O)[C@H](CO)NC(=O)[C@H](C)NC(=O)[C@H](CCC(=O)O)NC(=O)CCCCCCCCCCCCCCCCC(=O)O)[C@@H](C)O)C(C)C)C(=O)N[C@@H](C)C(=O)N[C@H](C(=O)N[C@@H](CC(C)C)C(=O)N1CCC[C@H]1C(=O)N[C@@H](CCCNC(=N)N)C(=O)N[C@H](C(=O)N[C@@H](CCC(=O)O)C(=O)N[C@H](C(=O)NCC(=O)N1CCC[C@H]1C(=O)N[C@@H](CCC(=O)O)C(=O)N[C@@H](CO)C(=O)N1CCC[C@H]1C(N)=O)[C@@H](C)O)[C@@H](C)O)[C@@H](C)O ({C18 diacid}-EASELSTAVLGRLSAELHELATLPRTETGPESP-NH2) | 39% | ≥ 200 µM | ≥ 200 µM | ≥ 200 µM | 0.012 nM | ≥ 200 µM | 58.5% | 0.796 nM | ≥ 200 µM | ≥ 200 µM | ≥ 200 µM | ≥ 200 µM | 0.009 nM |
